# Measurements published in patent US20260283924A1, “TOPICAL COMPOSITIONS FOR PROMOTING HAIR GROWTH” (ESTETRA SRL, priority 2023, published 2026).
# How the values were obtained:
# [1] = tested on: human anagen VI scalp HFs (healthy female donors); assay: Healthy female donor hair follicle organ culture (ex vivo model), Example 7; type: cell-based; conditions: for hair shaft production: vs vehicle
# Method: 12-44 full-length frontotemporal hair follicles (HF) were obtained from four healthy human female donors >50 years old. […] Donor 2:29; Donor 3:44; Donor 4:32). After microdissection from skin as described in the art (Edelkamp et al., Methods Mol Biol, 2020, 2154:105-119; and Langan et al., Exp Dermatol, 2015 December; 24(12):903-1), HFs were placed in adequate culture medium and allowed a 24 h rest period to allow them to recover from the trauma of microdissection. Test substance (either vehicle (0.3% EtOH) or E4 at concentrations of 30 μM, 3 μM or 300 nM) was added to the medium at the end of the 24 h. Total culturing time was 5-9 days depending on the stage of the HFs in the vehicle group. The experimental design for a 6-days HF organ culture experiment is depicted in FIG. 9.
# This model allows to assess if E4 treatment is able to prolong anagen and/or to delay catagen initiation in healthy female subjects. Clinically, hair loss is associated with a reduction of HFs in anagen or with a shortening of anagen duration. Promoting anagen might thus limit hair loss. The following parameters were investigated:
# To determine the HF length, each HF was measured from the end of the bulb connective tissue sheath to the end of the distal outer root sheath (ORS), using a digital light microscope at 50× magnification (VHX 900 Keyence Corporation, Osaka, Japan) and the affiliated software (Edelkamp et al., Methods Mol Biol, 2020, 2154:105-119; and Langan et al., Exp Dermatol, 2015 December; 24(12):903-1). Measurements were obtained at baseline, after 24 h rest period and subsequently every 24-48 h during the entire duration of the experiment. Elongation is expressed as millimeters of growth and/or as percentage elongation from the baseline measurement.
# Hair cycle staging and calculation of hair cycle score is indicative of hair cycle progression and anagen-catagen transition (Langan et al., Exp Dermatol, 2015). Hair cycle staging and hair cycle scoring was performed at the end of the culture. The hair cycle stage of each HF was determined according to several established macroscopic and microscopic parameters (Langan et al Exp Dermatol, 2015). Microscopic hair cycle staging was determined using Ki-67/TUNEL immunohistology and Masson-Fontana histochemistry. Hair cycle staging was analyzed by calculating the percentage of HFs in each hair cycle stage. Hair cycle score was determined by giving an arbitrary score to each hair cycle stage as following: anagen: 100, early catagen: 200, mid catagen: 300, late catagen: 400, dystrophic 500.
# Germinative hair matrix keratinocytes proliferate mostly during anagen. […] Apoptosis of hair matrix keratinocytes is used as an additional indicator of anagen/catagen transition.
# Proliferation was assessed by quantification of the percentage of hair matrix keratinocytes in a clearly specified area (germinative hair matrix keratinocytes, below the Auber's line) that were positive for the proliferation marker Ki67, whereas apoptosis was assessed using TUNEL (TdT-mediated dUTP-biotin nick-end labelling) immunofluorescence in the same keratinocyte population (below the Auber's line) and in the precortical hair matrix keratincoytes (above the Auber's line) (Langan et al., Exp Dermatol 2015) (FIG. 11).
# Alkaline phosphatase is an indicator of DP inductivity (Yang, J Dermatol Sci, 2010 January; 57(1):2-11). Alkaline phosphatase in situ activity was measured in the DP.
# Versican, a large chondroitin sulfate proteoglycan molecule, is expressed in DP in anagen HFs and diminishes in catagen HFs and its expression correlates with hair inductive properties (Yang, J Dermatol Sci 2010). Versican intensity was analyzed in the DP.
# CD34 is a marker expressed by the progeny of HF bulge stem cells. It is expressed in the most external layer of the outer root sheet (ORS) below the isthmus (sub-bulge to suprabulbar regions) (Purba et al., BioEssays, 2014 May; 36(5):513-25). […]
# [2] = tested on: occipital hair follicles (healthy donor); assay: Healthy donor hair follicle organ culture (ex vivo model), Example 8; type: cell-based, human; conditions: for K15 expression in the suprabulbar outer root sheath / number of cells (K15) in the suprabulbar outer root sheath: 300 nM; for density of cells in the dermal cup of anagen HFs / density of cells in the dermal papilla / density of cells in the dermal papilla stalk / hair matrix keratinocyte proliferation / total number of cells in the dermal cup of anagen HFs / total number of cells in the dermal papilla / total number of cells in the dermal papilla stalk: 3 μM
# Method: In brief, 24 full-length occipital hair follicles (HF) were obtained from one healthy donor. […] Test substance (either vehicle (0.03% EtOH), E2 at concentration of 300 nM or E4 at concentrations of 3 μM or 300 nM) was added to the medium at the end of the 24 h. Total culturing time was 5 days depending on the stage of the HFs in the vehicle group. The experimental design is depicted in FIG. 23.
# [3] = 300 nM and 30 μM, tendentially vs vehicle
# [4] = 300 nM, 3 μM, 30 μM, listed as Estetrol
# [5] = 3 μM, significantly vs vehicle, listed as estetrol
# [6] = 300 nM and 3 μM, listed as Estetrol
compound,measurement,setting,value
"C[C@]12CC[C@@H]3c4ccc(O)cc4CC[C@H]3[C@@H]1[C@@H](O)[C@@H](O)[C@@H]2O [Formulation E4, 1,3,5 (10)-estratrien-3,15alpha,16alpha,17beta-tetrol]",total number of cells in the DP stalk,[1]; 300 nM and 3 μM,significantly reduced the total number of cells in the DP stalk
same,hair matrix keratinocytes proliferation (Ki-67),[1]; [3],increased hair matrix keratinocytes proliferation
same,microscopic hair cycle staging: anagen,[1]; [3],prolonged anagen
same,"percentage of CD34 positive cells, suprabulbar ORS",[1]; [3],increased the percentage of CD34 positive cells
same,microscopic hair cycle staging: anagen,"[1]; 300 nM and 30 μM, tendentially vs vehicle, listed as estetrol",maintain longer HFs in anagen
same,density of cells in the inductive dermal cup,"[1]; 300 nM, 3 μM, 30 μM",no significant impact on the density of cells in the inductive dermal cup
same,hair matrix keratinocytes apoptosis (TUNEL),"[1]; 300 nM, 3 μM, 30 μM",without affecting hair matrix keratinocytes apoptosis
same,"percentage of K15 positive cells, suprabulbar ORS","[1]; 300 nM, 3 μM, 30 μM",did not have any effect on the percentage of K15 positive cells
same,hair matrix keratinocytes apoptosis (TUNEL),[1]; [4],apoptosis was not affected
same,hair shaft production,"[1]; 300 nM, 3 μM, 30 μM",did not modify hair shaft production
same,hair shaft production,[1]; [4],does not impact hair shaft production
same,"proliferation of K15 positive cells (Ki-67), suprabulbar ORS","[1]; 300 nM, significantly vs vehicle",decreased their proliferation
same,"percentage of K15 positive cells, bulge basal layer",[1]; 3 μM,significantly decreased the percentage of K15 positive cells
same,"proliferation of K15 positive cells (Ki-67), bulge basal layer","[1]; 3 μM and 300 nM, tendentially vs vehicle",increased their proliferation
same,hair matrix keratinocytes proliferation (Ki-67),"[1]; 3 μM, significantly vs vehicle",increased hair matrix keratinocytes proliferation
same,microscopic hair cycle staging: anagen,"[1]; 3 μM, significantly vs vehicle",prolonged anagen
same,"percentage of CD34 positive cells, suprabulbar ORS","[1]; 3 μM, significantly vs vehicle",increased the percentage of CD34 positive cells
same,hair matrix keratinocytes proliferation (Ki-67),[1]; [5],increases hair matrix keratinocytes proliferation
same,microscopic hair cycle staging: anagen,[1]; [5],maintain longer HFs in anagen
same,"proliferation of K15 positive cells (Ki-67), suprabulbar ORS","[1]; 3 μM, tendentially vs vehicle",decreased their proliferation
same,"proliferation of K15 positive cells (Ki-67), bulge basal layer","[1]; 30 μM, significantly vs vehicle",increased their proliferation
same,density of cells in the DP stalk,[1]; all concentrations,tendentially decreased the density of cells
same,alkaline phosphatase activity in DP cells,[1]; all tested concentrations,tendentially increased
same,density of cells in the DP,[1]; all tested concentrations,did not strikingly affect the density of cells in the DP
same,versican expression in DP cells,[1]; all tested concentrations,tendentially increased versican expression
same,K15 expression in the suprabulbar outer root sheath,[2],tendentially increased
same,number of cells (K15) in the suprabulbar outer root sheath,[2],tendentially increased
same,area of the dermal papilla,[2]; 300 nM and 3 μM,increased
same,hair shaft production (reduction vs vehicle),[2]; 300 nM and 3 μM,tendentially
same,microscopic hair cycle: anagen,[2]; 300 nM and 3 μM,maintained HFs in anagen
same,number of CD34+ cells in the suprabulbar outer root sheath,[2]; 300 nM and 3 μM,decreased
same,area of the dermal papilla,[2]; [6],increases the area
same,microscopic hair cycle: anagen,[2]; [6],maintain hair follicles in anagen
same,number of CD34+ cells in the suprabulbar outer root sheath,[2]; [6],decreases the number of CD34+ cells
same,K15 expression in the suprabulbar outer root sheath,[2]; listed as estetrol,tendentially increase K15 expression
same,number of cells (K15) in the suprabulbar outer root sheath,[2]; listed as estetrol,tendentially increase
same,density of cells in the dermal cup of anagen HFs,[2],significantly decreased
same,density of cells in the dermal papilla,[2],tendentially decreased
same,density of cells in the dermal papilla stalk,[2],decreased
same,hair matrix keratinocyte proliferation,[2],tendentially increased
same,total number of cells in the dermal cup of anagen HFs,[2],significantly decreased
same,total number of cells in the dermal papilla,[2],tendentially decreased
same,total number of cells in the dermal papilla stalk,[2],decreased
same,microscopic hair cycle: anagen maintenance,[2]; 3 μM compared with 300 nM,even more prominently
same,density of cells in the dermal cup of anagen HFs,[2]; listed as Estetrol,significantly decreases
same,density of cells in the dermal papilla,[2]; listed as Estetrol,tendentially decreases
same,density of cells in the dermal papilla stalk,[2]; listed as Estetrol,decreases the density of cells in the dermal papilla stalk
same,hair matrix keratinocyte proliferation,[2]; listed as Estetrol,increased
same,total number of cells in the dermal cup of anagen HFs,[2]; listed as Estetrol,significantly decreases
same,total number of cells in the dermal papilla,[2]; listed as Estetrol,tendentially decreases
same,total number of cells in the dermal papilla stalk,[2]; listed as Estetrol,tendentially
